From publication PMC2009656 (British Journal of Cancer, 1978)

How the values were obtained:
[1] = test system: isolated liver rough endoplasmic reticulum (RER); assay type: biochemical, rat
[2] = test system: isolated liver rough endoplasmic reticulum (RER); assay type: biochemical, rat; remark: listed apart in the source

In the case of ClCOCCl [Bis(Chloromethyl)ether], the “Degranulation (%)” value [1] is reported as 47. %.
With NN [Hydrazine] the “Degranulation (%)” value [1] was 2 - 4%.
CCC1(c2ccccc2)C(=O)NC(=O)NC1=O [Phenobarbital] was tested, and the “Degranulation (%)” value [1] was 0-6%.
With Aflatoxin B1 the “Degranulation (%)” value [1] was 1-3%.
For EDTA, the “degranulation obtained from RNA/protein ratios” value [2] was 59.8%.
